In EPA's ToxRefDB 2:

What was measured:
[1] = system: dog; conditions: Chronic toxicity, beagle, Oral, Feed, dose end: 52 week, group: systemic
[2] = system: mouse; conditions: Carcinogenicity, cd1, Oral, Feed, dose end: 20 month, group: systemic
[3] = system: mouse; conditions: Carcinogenicity; other; Oral; Feed; dose end: 18 month; group: systemic; systemic / pathology microscopic / liver / hypertrophy + systemic / pathology microscopic / liver / necrosis
[4] = system: dog; conditions: Subchronic oral toxicity in nonrodent, beagle, Feed, dose end: 13 week, group: systemic, systemic / clinical chemistry / alanine aminotransferase (alt/sgpt) / alanine aminotransferase (alt/sgpt) + systemic / clinical chemistry / …
[5] = system: dog; conditions: Chronic toxicity; beagle; Oral; Feed; dose end: 52 week; group: systemic; systemic / organ weight / liver / absolute + systemic / organ weight / liver / relative to body weight
[6] = system: rat; conditions: Combined chronic toxicity/carcinogenicity; fischer; Oral; Feed; dose end: 104 week; group: systemic; systemic / hematology / methemoglobin / methemoglobin + systemic / pathology microscopic / kidney / mineralization + systemic / pathology …
[7] = system: rat; conditions: Prenatal developmental toxicity study, sprague dawley, Oral, Gavage/Intubation, dose end: 15 GD
[8] = system: rat; conditions: Multigenerational reproductive toxicity study, sprague dawley, Oral, Feed, dose end: 2 generation
[9] = system: rabbit; conditions: Prenatal developmental toxicity study, new zealand white, Oral, Gavage/Intubation, dose end: 18 GD
[10] = system: rat; conditions: Subchronic oral toxicity in rodents, fischer, Feed, dose end: 84 day, group: systemic, systemic / clinical chemistry / thyroxine (t4) / thyroxine (t4)
[11] = system: mouse; conditions: Subchronic oral toxicity in rodents, cd1, Feed, dose end: 13 week, group: systemic, systemic / pathology microscopic / liver / cytomegaly + systemic / pathology microscopic / spleen / hematopoietic cell proliferation + …
[12] = system: rat; conditions: Multigenerational reproductive toxicity study, other, Oral, Feed, dose end: 2 generation
[13] = system: mouse; conditions: Carcinogenicity; cd1; Oral; [Not Specified]; dose end: 79 week; group: systemic; systemic / hematology / erythrocyte (rbc) count differential / erythrocyte (rbc) + systemic / hematology / hematocrit (hct) / hematocrit (…
[14] = system: dog; conditions: Chronic toxicity; beagle; Oral; Capsule; dose end: 52 week; group: systemic; systemic / clinical chemistry / alkaline phosphatase (alp/alk) / alkaline phosphatase (alp/alk) + systemic / hematology / blood clotting / …
[15] = system: rat; conditions: Subchronic oral toxicity in rodents, sprague dawley, Feed, dose end: 90 day, group: systemic
[16] = system: rat; conditions: Subchronic oral toxicity in rodents, other, Feed, dose end: 13 week
[17] = system: rat; conditions: Combined chronic toxicity/carcinogenicity, sprague dawley, Oral, Feed, dose end: 106 week, group: systemic
[18] = system: dog; conditions: Subchronic oral toxicity in nonrodent, beagle, Capsule, dose end: 13 week, group: systemic, systemic / hematology / blood clotting / blood clotting - activated partial thromboplastin time
[19] = systemic / in life observation / body weight / body weight gain
[20] = systemic / pathology microscopic / eye / cataract
[21] = systemic / pathology microscopic / eye / cataract + systemic / hematology / erythrocyte (rbc) count differential / erythrocyte (rbc) + …
[22] = group: developmental, developmental / developmental malformation / bone / delayed ossification + developmental / developmental malformation / bone / full …
[23] = group: maternal, systemic / in life observation / body weight / body weight gain + systemic / in life observation / body weight / body weight + systemic / in…
[24] = group: offspring, developmental / offspring survival late / viability index / viability index + reproductive / offspring survival early / offspring survival …
[25] = group: parental, systemic / pathology microscopic / liver / congestion
[26] = group: developmental, developmental / developmental malformation / bone / full supernumerary + developmental / developmental malformation / bone / supernumerary
[27] = group: developmental, developmental / developmental malformation / bone / full supernumerary + developmental / developmental malformation / bone / supernumerary…
[28] = group: maternal, systemic / pathology microscopic / liver / hypertrophy + systemic / pathology microscopic / liver / vacuolization
[29] = group: maternal, systemic / pathology microscopic / liver / hypertrophy + systemic / pathology microscopic / liver / vacuolization + systemic / in life …
[30] = total + systemic / clinical chemistry / phosphorus / phosphorus + systemic…
[31] = group: offspring, developmental / offspring survival late / viability index / viability index
[32] = group: offspring, developmental / offspring survival late / viability index / viability index + systemic / in life observation / body weight / offspring (pup…
[33] = group: parental, systemic / organ weight / kidney / absolute
[34] = group: parental, systemic / organ weight / kidney / absolute + systemic / organ weight / kidney / relative to body weight + systemic / organ weight / liver…
[35] = systemic / urinalysis / sediment microscopic / epithelial cells
[36] = systemic / urinalysis / sediment microscopic / epithelial cells + systemic / organ weight / liver / relative to body weight
[37] = group: cholinesterase, cholinesterase / cholinesterase / cholinesterase / cholinesterase (che)
[38] = group: systemic, systemic / organ weight / liver / relative to body weight + systemic / clinical chemistry / [other] / [other] + systemic / in life …
[39] = systemic / organ weight / spleen / absolute + systemic / organ weight / liver / relative to body weight

How did the LOAEL ([1]; systemic / clinical chemistry / alanine aminotransferase (alt/sgpt) / alanine aminotransferase (alt/sgpt) + systemic / clinical chemistry / …) turn out when `CC(C)N(C(=O)COc1nnc(C(F)(F)F)s1)c1ccc(F)cc1` [Flufenacet] was run?
The LOAEL was 26.8 mg/kg/day.

What about the LEL [1, 19] of the same compound?
The LEL was 1.14 mg/kg/day.

What about the NEL [1, 19] of the same compound?
Its NEL is less than 1.14 mg/kg/day.

What about the NOAEL ([1]; systemic / in life observation / body weight / body weight gain + systemic / clinical chemistry / alanine aminotransferase (alt/sgpt) / …) of the same compound?
Its NOAEL is 1.14 mg/kg/day.

And the LOAEL [2, 20]?
Its LOAEL is 7.4 mg/kg/day.

What about the NOAEL [2, 20] of the same compound?
Its NOAEL is less than 7.4 mg/kg/day.

What about the LEL [2, 21] of the same compound?
Its LEL is 7.4 mg/kg/day.

What about the NEL [2, 21] of the same compound?
The NEL was less than 7.4 mg/kg/day.

What about the LEL [3] of the same compound?
The LEL was 2.1 mg/kg/day.

What about the LOAEL [3] of the same compound?
The LOAEL was 2.1 mg/kg/day.

And the NEL [3]?
Its NEL is less than 2.1 mg/kg/day.

What about the NOAEL [3] of the same compound?
The NOAEL was less than 2.1 mg/kg/day.

What about the LEL [4] of the same compound?
Its LEL is 1.67 mg/kg/day.

What about the LOAEL [4] of the same compound?
The LOAEL was 6.9 mg/kg/day.

What about the NEL [4] of the same compound?
The NEL was less than 1.67 mg/kg/day.

What about the NOAEL [4] of the same compound?
The NOAEL was 1.7 mg/kg/day.

And the LEL [5]?
The LEL was 17.3 mg/kg/day.

And the LOAEL [5]?
Its LOAEL is 17.3 mg/kg/day.

And the NEL [5]?
The NEL was 3.15 mg/kg/day.

What about the NOAEL [5] of the same compound?
Its NOAEL is 3.15 mg/kg/day.

And the LEL [6]?
The LEL was 1.2 mg/kg/day.

And the LOAEL [6]?
Its LOAEL is 1.2 mg/kg/day.

What about the NEL [6] of the same compound?
Its NEL is less than 1.2 mg/kg/day.

What about the NOAEL [6] of the same compound?
The NOAEL was less than 1.2 mg/kg/day.

And the LEL [7, 22]?
Its LEL is 125 mg/kg/day.

And the LOAEL [7, 22]?
The LOAEL was 125 mg/kg/day.

What about the NEL [7, 22] of the same compound?
The NEL was 25 mg/kg/day.

And the NOAEL [7, 22]?
Its NOAEL is 25 mg/kg/day.

What about the LOAEL ([7]; group: maternal, systemic / in life observation / body weight / body weight gain) of the same compound?
Its LOAEL is 125 mg/kg/day.

What about the LEL [7, 23] of the same compound?
The LEL was 125 mg/kg/day.

And the NEL [7, 23]?
The NEL was 25 mg/kg/day.

And the NOAEL [7, 23]?
Its NOAEL is 25 mg/kg/day.

What about the LEL [8, 24] of the same compound?
Its LEL is 7.3 mg/kg/day.

What about the LOAEL [8, 24] of the same compound?
The LOAEL was 7.3 mg/kg/day.

What about the NEL [8, 24] of the same compound?
Its NEL is 1.4 mg/kg/day.

And the NOAEL [8, 24]?
The NOAEL was 1.4 mg/kg/day.

And the LEL [8, 25]?
Its LEL is 1.4 mg/kg/day.

And the NEL [8, 25]?
Its NEL is less than 1.4 mg/kg/day.

What about the LOAEL ([8]; group: parental, systemic / pathology microscopic / liver / hypertrophy) of the same compound?
Its LOAEL is 7.3 mg/kg/day.

What about the NOAEL ([8]; group: parental, systemic / pathology microscopic / liver / hypertrophy + systemic / pathology microscopic / liver / congestion) of the same compound?
The NOAEL was 1.4 mg/kg/day.

And the LEL [9, 26]?
Its LEL is 125 mg/kg/day.

And the LOAEL [9, 26]?
Its LOAEL is 125 mg/kg/day.

And the NEL [9, 27]?
The NEL was 25 mg/kg/day.

And the NOAEL [9, 27]?
The NOAEL was 25 mg/kg/day.

What about the LEL [9, 28] of the same compound?
The LEL was 25 mg/kg/day.

And the LOAEL [9, 28]?
Its LOAEL is 25 mg/kg/day.

What about the NEL [9, 29] of the same compound?
The NEL was 5 mg/kg/day.

And the NOAEL [9, 29]?
The NOAEL was 5 mg/kg/day.

What about the LOAEL ([10]; total) of the same compound?
The LOAEL was 6 mg/kg/day.

And the NOAEL ([10]; total)?
Its NOAEL is less than 6 mg/kg/day.

What about the LEL [10, 30] of the same compound?
The LEL was 6 mg/kg/day.

And the NEL [10, 30]?
Its NEL is less than 6 mg/kg/day.

And the LEL [11]?
Its LEL is 64.2 mg/kg/day.

And the LOAEL [11]?
Its LOAEL is 64.2 mg/kg/day.

What about the NEL [11] of the same compound?
Its NEL is 18.2 mg/kg/day.

What about the NOAEL [11] of the same compound?
Its NOAEL is 18.2 mg/kg/day.

Which results are given for `CCCCCOC(=O)COc1cc(N2C(=O)C3=C(CCCC3)C2=O)c(F)cc1Cl` [Flumiclorac-pentyl]?
LEL [12, 31]: 829 mg/kg/day; LOAEL [12, 31]: 829 mg/kg/day; NEL [12, 32]: 18 mg/kg/day; NOAEL [12, 32]: 18 mg/kg/day; LEL [12, 33]: 18 mg/kg/day; NEL [12, 33]: < 18 mg/kg/day; LOAEL [12, 34]: 829 mg/kg/day; NOAEL [12, 34]: 18 mg/kg/day; LEL [13]: 308 mg/kg/day; LOAEL [13]: 308 mg/kg/day; NEL [13]: 31.5 mg/kg/day; NOAEL [13]: 31.5 mg/kg/day; LEL [14]: 1000 mg/kg/day; LOAEL [14]: 1000 mg/kg/day; NEL [14]: 100 mg/kg/day; NOAEL [14]: 100 mg/kg/day; LEL [15, 35]: 659 mg/kg/day; LOAEL [15, 35]: 659 mg/kg/day; NEL [15, 36]: 64.9 mg/kg/day; NOAEL [15, 36]: 64.9 mg/kg/day; LEL [16, 37]: 73.8 mg/kg/day; LOAEL [16, 37]: 73.8 mg/kg/day; NEL [16, 37]: 7.4 mg/kg/day; NOAEL [16, 37]: 7.4 mg/kg/day; LEL ([16]; group: systemic, systemic / clinical chemistry / [other] / [other] + systemic / in life observation / food consumption / food efficiency + systemic / in life…): 664 mg/kg/day; LOAEL ([16]; group: systemic, systemic / organ weight / liver / relative to body weight): 1360 mg/kg/day; NEL [16, 38]: 67 mg/kg/day; NOAEL [16, 38]: 664 mg/kg/day; LOAEL ([17]; systemic / organ weight / liver / relative to body weight + systemic / organ weight / kidney / absolute + systemic / organ weight / liver / …): 360 mg/kg/day; LEL [17, 39]: 3.5 mg/kg/day; NEL [17, 39]: < 3.5 mg/kg/day; NOAEL ([17]; systemic / organ weight / spleen / absolute + systemic / organ weight / liver / relative to body weight + systemic / organ weight / kidney…): 35.4 mg/kg/day; LEL [18]: 100 mg/kg/day; LOAEL [18]: 100 mg/kg/day; NEL [18]: 10 mg/kg/day; NOAEL [18]: 10 mg/kg/day
